Measured values published in patent publication US20050192279A1, “Pyridazinones as antagonists of alpha4 integrins” (priority 2004, published 2005).
Like-named read-outs stand apart in the source and are kept apart here.

Experiments:
[1] = biological target: T1, α4β1 (Homo sapiens, UniProt P05556+P13612); test: Ramos Cell Adhesion Assay (α4β1 Mediated Adhesion/VCAM-1); format: cell-based
T1 construct: Ramos Cell Adhesion Assay (α4β1 Mediated Adhesion/VCAM-1); endogenous in cells; host or cells: Ramos cells
T1 sequence (P05556 21-798, one chain of several): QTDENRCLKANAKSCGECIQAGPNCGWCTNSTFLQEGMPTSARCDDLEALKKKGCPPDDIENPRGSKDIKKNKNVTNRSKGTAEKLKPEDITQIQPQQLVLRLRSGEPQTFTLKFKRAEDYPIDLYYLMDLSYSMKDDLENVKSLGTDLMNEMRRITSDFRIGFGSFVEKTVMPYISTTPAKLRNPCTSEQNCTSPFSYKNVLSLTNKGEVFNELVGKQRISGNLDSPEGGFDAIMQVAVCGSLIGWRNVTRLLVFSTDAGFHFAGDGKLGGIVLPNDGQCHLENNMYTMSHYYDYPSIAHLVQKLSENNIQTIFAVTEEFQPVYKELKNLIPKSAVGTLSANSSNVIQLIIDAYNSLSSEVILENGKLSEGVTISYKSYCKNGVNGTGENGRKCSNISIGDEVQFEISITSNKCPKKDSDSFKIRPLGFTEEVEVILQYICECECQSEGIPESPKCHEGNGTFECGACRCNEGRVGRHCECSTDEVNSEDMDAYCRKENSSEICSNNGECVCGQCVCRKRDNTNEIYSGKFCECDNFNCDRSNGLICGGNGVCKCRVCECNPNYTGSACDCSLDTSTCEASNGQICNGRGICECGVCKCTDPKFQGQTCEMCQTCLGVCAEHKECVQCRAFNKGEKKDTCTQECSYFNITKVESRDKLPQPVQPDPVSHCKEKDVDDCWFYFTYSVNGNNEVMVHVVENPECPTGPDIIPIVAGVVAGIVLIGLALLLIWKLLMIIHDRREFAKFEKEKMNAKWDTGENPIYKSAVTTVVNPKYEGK
Protocol: Ramos Cell Adhesion Assay (α4β1 Mediated Adhesion/VCAM-1)
Immulon 96 well plates (Dynex) were coated with 100 μL recombinant hVCAM-1 at 4.0 μg/mL in 0.05 M NaCO3 buffer pH 9.0 overnight at 4° C. (R&D Systems). Plates were washed 2 times in PBS with 1% BSA and blocked for 1 h @ room temperature in this buffer. PBS was removed and compounds to be tested (50 μL) were added at 2× concentration. Ramos cells, (50 μL at 2×10^6/mL) labeled with 5 μM Calcein AM (Molecular Probes) for 1 h at 37° C., were added to each well and allowed to adhere for 1 h at room temperature. Plates were washed 4× in PBS+1% BSA and cells were lysed for 15 minutes in 100 μL of 1 M Tris pH 8.0 with 1% SDS.

[2] = biological target: T2, human α4β7 integrin (Homo sapiens, UniProt P13612+P26010); test: α4β7-K562 Cell Adhesion Assay (α4β7 Mediated Adhesion/MAdCAM-1); format: cell-based
T2 construct: expressed in transfected cells; host or cells: K562 cells, stably transfected
T2 sequence (P13612 34-1032): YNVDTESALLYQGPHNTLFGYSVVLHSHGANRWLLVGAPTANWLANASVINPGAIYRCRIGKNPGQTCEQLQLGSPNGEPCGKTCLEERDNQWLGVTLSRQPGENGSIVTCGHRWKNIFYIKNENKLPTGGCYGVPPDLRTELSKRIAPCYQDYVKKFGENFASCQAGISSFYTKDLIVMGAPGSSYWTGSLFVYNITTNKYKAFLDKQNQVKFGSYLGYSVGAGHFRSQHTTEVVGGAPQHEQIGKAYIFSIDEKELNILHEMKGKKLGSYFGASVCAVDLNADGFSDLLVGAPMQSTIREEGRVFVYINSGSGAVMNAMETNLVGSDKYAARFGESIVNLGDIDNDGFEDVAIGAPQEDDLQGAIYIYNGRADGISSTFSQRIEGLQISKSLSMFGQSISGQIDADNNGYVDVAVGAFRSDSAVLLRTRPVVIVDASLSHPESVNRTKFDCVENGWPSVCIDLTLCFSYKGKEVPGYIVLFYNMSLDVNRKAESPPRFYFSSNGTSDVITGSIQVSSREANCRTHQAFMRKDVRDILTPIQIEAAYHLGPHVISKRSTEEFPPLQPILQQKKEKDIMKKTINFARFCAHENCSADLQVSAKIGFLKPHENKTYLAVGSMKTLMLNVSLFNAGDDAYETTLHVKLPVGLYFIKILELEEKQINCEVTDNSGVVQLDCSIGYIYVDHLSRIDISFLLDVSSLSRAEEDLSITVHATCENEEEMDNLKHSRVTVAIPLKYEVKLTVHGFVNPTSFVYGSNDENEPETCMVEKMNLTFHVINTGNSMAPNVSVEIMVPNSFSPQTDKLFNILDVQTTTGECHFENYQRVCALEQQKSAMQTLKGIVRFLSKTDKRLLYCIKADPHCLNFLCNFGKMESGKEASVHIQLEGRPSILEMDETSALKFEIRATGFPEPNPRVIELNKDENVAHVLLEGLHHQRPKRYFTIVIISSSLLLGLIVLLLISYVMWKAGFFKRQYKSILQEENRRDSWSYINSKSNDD
T2 sequence (P26010 20-798): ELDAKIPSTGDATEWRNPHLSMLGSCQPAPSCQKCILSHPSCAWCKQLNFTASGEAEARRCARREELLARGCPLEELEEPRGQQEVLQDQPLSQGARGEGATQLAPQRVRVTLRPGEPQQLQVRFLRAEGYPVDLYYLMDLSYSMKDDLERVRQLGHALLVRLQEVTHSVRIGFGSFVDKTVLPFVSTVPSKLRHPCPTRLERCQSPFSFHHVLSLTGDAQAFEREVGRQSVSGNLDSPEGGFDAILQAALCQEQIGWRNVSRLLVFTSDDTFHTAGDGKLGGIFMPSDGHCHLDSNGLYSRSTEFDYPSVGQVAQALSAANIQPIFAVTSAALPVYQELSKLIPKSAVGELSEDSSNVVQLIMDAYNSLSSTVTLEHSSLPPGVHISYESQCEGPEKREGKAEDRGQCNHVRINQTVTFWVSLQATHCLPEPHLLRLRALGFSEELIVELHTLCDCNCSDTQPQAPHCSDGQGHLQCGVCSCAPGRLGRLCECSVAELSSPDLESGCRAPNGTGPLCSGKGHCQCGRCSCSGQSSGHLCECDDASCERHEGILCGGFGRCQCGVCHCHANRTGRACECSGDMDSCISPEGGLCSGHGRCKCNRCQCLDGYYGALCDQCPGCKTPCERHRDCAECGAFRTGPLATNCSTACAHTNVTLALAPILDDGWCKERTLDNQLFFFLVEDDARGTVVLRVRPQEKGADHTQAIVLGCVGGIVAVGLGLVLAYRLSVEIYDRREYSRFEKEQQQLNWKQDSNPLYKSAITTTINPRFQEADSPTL
Protocol: α4β7-K562 Cell Adhesion Assay (α4β7 Mediated Adhesion/MAdCAM-1)
M2 anti-FLAG Antibody Coated 96-well plates (Sigma) were coated for 1 hour at 4° C. with 2-8 μl/well recombinant FLAG-hMAdCAM-1 contained in 100 μL of Dulbecco's PBS, pH 7.4, with 1% BSA and 1 mM Mn ^+2 (PBS-BSA-Mn). Plates were washed once with PBS-BSA-Mn. Buffer was removed and compounds to be tested (50 μL) were added at 2× concentration. Stably transfected K562 cells expressing human α4β7 integrin, (50 μL at 2×10^6/mL) that had been labeled with 100 μg/ml carboxymethyl fluorescein diacetate succinimidyl ester (CFDA-SE; Molecular Probes) for 15 min at 37° C. were added to each well and allowed to adhere for 1 h at room temperature. Plates were washed 4× in PBS-BSA-Mn and then cells were lysed for 2 minutes by addtion of 100 μL of PBS without Ca, Mg supplemented with 0.1 M NaOH.

[3] = Ramos cell adhesion to hVCAM-1, read-out: α4β1 IC50
[4] = α4β7-K562 cell adhesion to hMAdCAM-1, read-out: α4β7 IC50

Row | IC50 [1, 3] [nM] | IC50 [2, 4] [nM] | SMILES | IC50 ([1]; α4β1 IC50, Ramos cell adhesion to hVCAM-1) [nM] | IC50 ([2]; α4β7 IC50, α4β7-K562 cell adhesion to hMAdCAM-1) [nM]
1 | > 1000 | 165 | COc1cnn(C)c(=O)c1-c1ccc(C[C@H](NC(=O)C23CCC(CC2)CN3C)C(=O)O)cc1 [Cpd 135] | – | –
2 | > 5000 | 478 | COc1cnn(C)c(=O)c1-c1ccc(CC(NC(=O)C2CCCN2)C(=O)O)cc1 (mixture of isomers) [Cpd 166] | – | –
3 | 472 | 13 | COc1cnn(C)c(=O)c1-c1ccc(C[C@H](NC(=O)C2(NC3CCCC3)CC2)C(=O)O)cc1 [Cpd 225] | – | –
4 | > 5000 | 1870 | COc1cnn(C)c(=O)c1-c1ccc(C[C@H](NC(=O)OCc2c(Cl)cccc2Cl)C(=O)O)cc1 [Cpd 204] | – | –
5 | > 5000 | 163 | COc1cnn(C)c(=O)c1-c1ccc(C[C@H](NC(=O)C2(NC(=O)OC(C)(C)C)CC2)C(=O)O)cc1 [Cpd 177] | – | –
6 | > 5000 | 52 | O=C(N[C@@H](Cc1ccc(-c2c(Cl)cnn(CC3CC3)c2=O)cc1)C(=O)O)c1c(Cl)cccc1Cl [Cpd 93, (S)-3-[4-(5-Chloro-2-cyclopropylmethyl-3-oxo-2,3-dihydro-pyridazin-4-yl)-phenyl]-2-(2,6-dichloro-benzoylamino)-propionic acid] | – | –
7 | 1310 | 9 | C=CCNc1cnn(CC(C)=O)c(=O)c1-c1ccc(C[C@H](NC(=O)c2c(Cl)cccc2Cl)C(=O)O)cc1 [Cpd 36] | – | –
8 | 484 | 3 | Cn1ncc(N2CCOCC2)c(-c2ccc(C[C@H](NC(=O)c3c(Cl)cccc3Cl)C(=O)O)cc2)c1=O [Cpd 20] | – | –
9 | > 5000 | 353 | COc1cnn(C)c(=O)c1-c1ccc(C[C@H](NC(=O)CN(C)C(=O)OC(C)(C)C)C(=O)O)cc1 [Cpd 157] | – | –
10 | > 1000 | 785 | COC(=O)[C@H](Cc1ccc(-c2c(OC)cnn(C)c2=O)cc1)NC(=O)[C@@H]1C2CCC(CC2)N1C(=O)CCc1ccccc1 [Cpd 182] | – | –
11 | 133 | 5 | Cn1ncc(OCc2cccnc2)c(-c2ccc(C[C@H](NC(=O)c3c(Cl)cccc3Cl)C(=O)O)cc2)c1=O [Cpd 25] | – | –
12 | > 5000 | 2320 | COc1cnn(C)c(=O)c1-c1ccc(C[C@H](NC(=O)c2cnc[nH]2)C(=O)O)cc1 [Cpd 205] | – | –
13 | 2620 | 5 | COc1cnn(C)c(=O)c1-c1ccc(C[C@H](NC(=O)[C@H](NC2CCCCC2)C(C)C)C(=O)O)cc1 [Cpd 28] | – | –
14 | – | – | Cn1ncc(NCCCl)c(-c2ccc(C[C@H](NC(=O)c3c(Cl)cccc3Cl)C(=O)O)cc2)c1=O [Cpd 162] | > 5000 | 408
15 | > 5000 | 750 | COc1cnn(C)c(=O)c1-c1ccc(CC(NC(=O)C(N)C(C)C)C(=O)O)cc1 (centres unmarked) [Cpd 181, 2-(2-Amino-3-methyl-butyrylamino)-3-[4-(5-methoxy-2-methyl-3-oxo-2,3-dihydro-pyridazin-4-yl)-phenyl]-propionic acid] | – | –
16 | > 5000 | 979 | Cn1ncc(N)c(-c2ccc(C[C@H](NC(=O)OC(C)(C)C)C(=O)O)cc2)c1=O [Cpd 190] | – | –
17 | > 5000 | 330 | COc1cnn(CCN2CCOCC2)c(=O)c1-c1ccc(C[C@H](NC(=O)[C@@H](NC(=O)OC(C)(C)C)[C@@H](C)O)C(=O)O)cc1 [Cpd 154] | – | –

Row | IC50 [1, 3] [nM] | IC50 [2, 4] [nM] | SMILES | IC50 ([1]; α4β1 IC50, Ramos cell adhesion to hVCAM-1) [nM] | IC50 ([2]; α4β7 IC50, α4β7-K562 cell adhesion to hMAdCAM-1) [nM]
18 | 49 | 1 | Cn1nc2c(c(-c3ccc(C[C@H](NC(=O)c4c(Cl)cccc4Cl)C(=O)O)cc3)c1=O)OCCO2 [Cpd 6, (S)-2-(2,6-Dichloro-benzoylamino)-3-[4-(2-methyl-3-oxo-2,3,6,7-tetrahydro-[1,4]dioxino[2,3-c]pyridazin-4-yl)-phenyl]-propionic acid] | – | –
19 | 518 | 102 | COc1cnn(Cc2ccccc2)c(=O)c1-c1ccc(C[C@H](NC(=O)c2c(Cl)cccc2Cl)C(=O)O)cc1 [Cpd 117] | – | –
20 | 1160 | 179 | COc1cnn(C)c(=O)c1-c1ccc(C[C@H](NC(=O)C2C(C)(C)C2(C)C)C(=O)O)cc1 [Cpd 136, (S)-3-[4-(5-Methoxy-2-methyl-3-oxo-2,3-dihydro-pyridazin-4-yl)-phenyl]-2-[(2,2,3,3-tetramethyl-cyclopropanecarbonyl)-amino]-propionic acid] | – | –
21 | > 5000 | – | CCOC(=O)[C@H](Cc1ccc(-c2c(OC)cnn(C)c2=O)cc1)NC(=O)c1c(Cl)cccc1Cl [Cpd 1] | – | –
22 | 2880 | 264 | COc1cnn(C)c(=O)c1-c1ccc(CC(NC(=O)C(C(C)C)n2c(C)ccc2C)C(=O)O)cc1 (centres unmarked) [Cpd 213] | – | –
23 | 474 | 9 | Cn1ncc(OCC(F)(F)F)c(-c2ccc(C[C@H](NC(=O)c3c(Cl)cccc3Cl)C(=O)O)cc2)c1=O [Cpd 37] | – | –
24 | > 5000 | 38 | COc1cnn(C)c(=O)c1-c1ccc(C[C@H](NC(=O)C2(NC3CCCCC3)CC2)C(=O)O)cc1 [Cpd 40] | – | –
25 | > 5000 | 28 | COc1cnn(C)c(=O)c1-c1ccc(C[C@H](NC(=O)c2c(Cl)cccc2Cl)C(=O)OCCCl)cc1 [Cpd 75] | – | –
26 | > 5000 | 852 | COc1cnn(C)c(=O)c1-c1ccc(C[C@H](NC(=O)NC2CCCCC2)C(=O)O)cc1 [Cpd 219] | – | –
27 | 3800 | 105 | COc1cnn(C)c(=O)c1-c1ccc(C[C@H](NC(=O)c2c(Cl)cccc2Cl)C(=O)NCCO)cc1 [Cpd 119] | – | –
28 | 218 | – | COc1cnn(C)c(=O)c1-c1ccc(C[C@H](NC(=O)C2(NC(C)C)CC2)C(=O)O)cc1 [Cpd 146] | – | –
29 | – | 471 | COc1cnn(C2CCCCC2)c(=O)c1-c1ccc(C[C@H](NC(=O)c2c(Cl)cccc2Cl)C(=O)O)cc1 [Cpd 165] | – | –
30 | > 5000 | – | COc1cnn(C)c(=O)c1-c1ccc(C[C@H](NC(=O)C2(NC(C)C)CC2)C(=O)O)cc1 [Cpd 3] | – | –
31 | – | 706 | COC(=O)N[C@@H](Cc1ccc(-c2c(OC)cnn(C)c2=O)cc1)C(=O)O [Cpd 178] | – | –
32 | – | 805 | COc1cnn(C)c(=O)c1-c1ccc(C[C@H](NC(=O)OC(C)(C)C)C(=O)O)cc1 [Cpd 183] | – | –
33 | – | 92 | COc1cnn(C)c(=O)c1-c1ccc(C[C@H](NC(=O)C2(OCc3ccccc3)CC2)C(=O)O)cc1 [Cpd 230] | – | –
